In patent publication US20230116399A1, “Tumor Homing Statin Derivatives” (Da Zen Theranostics, Inc., priority 2019, published 2023):
Values belong to the molecule of their own block, whether it stands above or below them.

Experiments:
[1] = tested on: L858R/T790M vs wild-type EGFR; details: inhibiting phosphorylation of EGFR; cited from earlier work
PC9 (LC) = assay: MTT cell viability, PC9; format: cell-based, human; details: Homo sapiens, 48 h / 24 hours, relative IC50
Description: (§1) Cell culture: In the following examples, unless otherwise specified, all cell lines are purchased from American Type Culture Collection and cultured in American Type Culture Collection (ATCC)-recommended media, with fetal bovine serum (FBS) to a final concentration of 10% and 1×penicillin/streptomycin at 37° C. with 5% CO2 in a cell culture incubator, unless otherwise specified. Unless otherwise specified, culture is 2D. Where culture is 3D, low attachment plates are used, with the same media. C4-2B (parental cell line and drug-resistant cells derived therefrom) are cultured in RPMI-1640 with 10% FBS. MDVR cells (an Enzalutamide-resistant variety of C4-2B prostate cancer cells formed as described in Example 4 below) are cultured as indicated for the parental C4-2B cells. 22RV1 Prostate Cancer (PC) cells (ATCC® CRL-2505™, a human prostate carcinoma cell line of epithelial morphology) are cultured in RPMI-1640 with 10% FBS. A549 cells (ATCC® CCL-185™, a human lung carcinoma cell line of epithelial morphology) are cultured in F-12K medium with 10% FBS. A549/DDP cells (Cells were described in DOI: 10.3892/mmr.2014.2163 and in doi: 10.7150/jca.19426; cisplatin resistant cells may be established from exposing parental A549 cells to cisplatin for an extended time). MDR A549/cisplatin lung adenocarcinoma cell line, drug resistant) are cultured in F-12K medium with 10% FBS. H1975 cells (ATCC® CRL-5908™, a human adenocarcinoma non-small cell lung cancer cell line of epithelial morphology) are cultured in RPMI-1640 medium with 10% FBS; H1975 cells are a cell model for human lung cancer that is resistant to Gefitinib (an EGFR inhibitor drug used for treatment of certain breast, lung and other cancers). H1650 cells (ATCC® CRL-5883™, a adenocarcinoma/bronchoalveolar carcinoma lung cancer cell line of epithelial morphology) are cultured in RPMI-1640 medium with 10% FBS. […]

A549DDP (LC) = assay: MTT cell viability, A549DDP; format: cell-based, human; details: Homo sapiens, A549/DDP, 48 h / 24 hours, relative IC50
Description: as §1
(§2) […] For each cell line, the IC50 is determined for each drug, i.e. the ELSD, the ALSD, and for the corresponding unconjugated statin (Simvastatin), in concentrations from 0.1-100 μM. […]

22RV1 (PC) = assay: MTT cell viability, 22RV1; format: cell-based, human
Description: as §1, §2

[2] = Stability of conjugates in mouse blood serum at 37° C. for 3 hours (LC-MS/MS); format: in vitro ADME; details: for amount of conjugate at 3 h (value at time 0 is 100) / degradation/release of the statin from the conjugate: mouse blood serum, 37° C., 3 h; for stability when exposed to serum: serum at body temperature for at least 3 hours
Description: Comparative example 1A-V: Synthesis of DZ1-SIM rapid release ester (RRE) and comparison of stability to an ELSD (here: DZ1-SIM). A rapid release ester (RRE) is synthesized as described below, linking DZ1 to Simvastatin (DZ1-SIM RRE or “DZ2c”, compound 8) and is tested in comparison to the ELSD (here: DZ1-SIM or “DZ2b”, compound 14, synthesized as described above). Both compounds are incubated in mouse blood serum at 37° C. for 3 hours, after which samples are taken and tested for degradation of the conjugates by testing for the unconjugated statin as described in example 6 herein-below (LC-MS/MS-025 with positive ion, ESI, MRM detection and HPLC). […] The value at time 0 for each of the samples is 100.

EZ-resistant C4-2B (PC) = assay: MTT cell viability, EZ-resistant C4-2B (MDVR); format: cell-based; details: Homo sapiens, 48 h / 24 hours, relative IC50
Description: as §1, with “FBS.” for “FBS. H1975 cells (ATCC® CRL-5908™, a human adenocarcinoma non-small cell lung cancer cell line of epithelial morphology) are cultured in RPMI-1640 medium with 10% FBS; H1975 cells are a cell model for human lung cancer that is resistant to Gefitinib (an EGFR inhibitor drug used for treatment of certain breast, lung and other cancers). H1650 cells (ATCC® CRL-5883™, a adenocarcinoma/bronchoalveolar carcinoma lung cancer cell line of epithelial morphology) are cultured in RPMI-1640 medium with 10% FBS.”

human cancer cell lines = assay: MTT cell viability, summary over the cancer cell lines; format: cell-based; details: summary of the table of IC50, read-out: range of IC50 over the cancer cell lines
Description: Example 7: The experiment is performed by cell assay essentially as described above in example 4. […]
The cell lines are cultured according to the protocols as described above, then each of the cell lines are treated for 48 h either with an ELSD (here of formula FId, “DZ2b” or compound 14) or with an ALSD (here of formula FIId, “DZ2a” or compound 7). For each cell line, the IC50 is determined for each drug, i.e. the ELSD, the ALSD, and for the corresponding unconjugated statin (Simvastatin), in concentrations from 0.1-100 μM.
In the controls (not shown in the figures), the cells are exposed to DMSO (vehicle) for a final concentration that equals the highest concentration of the drug tested, to a maximum concentration less than 0.1% v/v. […] The absorbance density of the supernatant is read on a 96-well microplate reader at wavelength 595 nm.

H1650 (LC) = assay: MTT cell viability, H1650; format: cell-based, human; details: Homo sapiens, NCI-H1650, 48 h / 24 hours, relative IC50
Description: as §1

H446 (LC) = assay: MTT cell viability, H446; format: cell-based, human; details: Homo sapiens, NCI-H446, 48 h / 24 hours, relative IC50
Description: as §1

PC3 (PC) = assay: MTT cell viability, PC3; format: cell-based; details: Homo sapiens, 48 h / 24 hours, relative IC50
Description: as §1, with “FBS.” for “FBS. H1975 cells (ATCC® CRL-5908™, a human adenocarcinoma non-small cell lung cancer cell line of epithelial morphology) are cultured in RPMI-1640 medium with 10% FBS; H1975 cells are a cell model for human lung cancer that is resistant to Gefitinib (an EGFR inhibitor drug used for treatment of certain breast, lung and other cancers). H1650 cells (ATCC® CRL-5883™, a adenocarcinoma/bronchoalveolar carcinoma lung cancer cell line of epithelial morphology) are cultured in RPMI-1640 medium with 10% FBS.”

A549 (LC) = assay: MTT cell viability, A549; format: cell-based, human; details: Homo sapiens, 48 h / 24 hours, relative IC50
Description: as §1

H1975 (LC) = assay: MTT cell viability, H1975; format: cell-based, human; details: Homo sapiens, NCI-H1975, 48 h / 24 hours, relative IC50
Description: as §1

[3] = tested on: 22Rv1 human prostate carcinoma tumors; assay: Tumor volume of 22Rv1 tumors grown subcutaneously in mice; format: in vivo; details: 8 mg/kg, intravenously injected
Description: Example 1D: 22Rv1 human prostate carcinoma cells are cultured as described above, separated from the medium, resuspended in 50% phosphate buffered saline (PBS) and 50% BD Matrigel™ (BD Biosciences, CA), and then the re-suspended cells are injected and grown subcutaneously in mice. […] The decrease of the THSD in the tumors at 2 and 4 weeks, respectively, as determined by NIR signal, is less than about 30%.
Example 1E: 22Rv1 human prostate carcinoma cells are cultured, injected and grown subcutaneously in mice as described above in example 1D. Tumor volume is monitored by measuring the size by caliper and calculating volume as described in example 9 below. The mice are intravenously injected with the following: ALSD of formula FIId, “DZ2a”, compound 7, the corresponding unconjugated dye (here: DZ1), unconjugated Simvastatin, a statin drug (SIM), and docetaxel (DOC), a cancer drug, and a mixture of the ALSD with DOC. Each active was administered in an amount of 5 mg/kg for the ALSD, DZ1, and SIM, except, in case of DOC, 8 mg/kg. A slower rate of increased tumor volume indicates tumor suppressive activity.

[4] = tested on: RhoA/B in H-1975 human lung cancer tumors; assay: RhoA/B membrane staining of tumor tissue, H-1975 mouse model; format: in vivo, mice; details: 20 mg/kg
Description: RhoA/RhoB membrane staining of tumor tissue of a H-1975 human lung cancer cell mouse model is performed as described below, and the tumor-bearing mice are treated with a THSD (here an ALSD of formula FIId, “DZ2a”, compound 7) in comparison to the corresponding unconjugated dye (“DZ1”) and to Gefinitib (an EGFR inhibitor drug used for treatment of certain breast, lung and other cancers).
H-1975 cells, a cell model for human lung cancer that is resistant to Gefitinib (an EGFR inhibitor drug used for treatment of certain breast, lung and other cancers) are cultured as described above and injected subcutaneously into mice to develop tumors. The mice and the tumors that are formed are systemically exposed to an ALSD (here of formula FIId, “DZ2a”, compound 7) by intravenous injection. The tumor-bearing mice are treated with either Gefitinib (20 mg/kg), or with an ALSD (here of formula FIId, “DZ2a”, compound 7, 5 mg/kg), an unconjugated dye of formula III (“DZ1”, 5 mg/kg) or a combination of the ALSD with Gefitinib.
For immunostaining of tumor tissue, the animals are sacrificed by prescribed and approved euthanasia techniques. Tumor tissue (maximum thickness 3 mm) is sliced, formalin fixated, embedded into paraffin blocks which are sectioned and processed into paraffin section slides. […]

SMILES: C=CC(=O)Nc1cc(Nc2nccc(-c3cn(C)c4ccccc34)n2)c(OC)cc1N(C)CCN(C)C [AZD9291, Osimertinib]
- greater potency against L858R/T790M than wild-type EGFR [1]: 100-200 times

- IC50 (PC9 (LC)): 5.6 µM
- IC50 (A549DDP (LC)): 2.1 µM
- IC50 (22RV1 (PC); 22RV1, treated for 48 h /, relative IC50, listed as ELSD): 7.8 µM
- IC50 (22RV1 (PC); Homo sapiens, 22Rv1, 22RV1, treated for 48 h /, relative IC50): 10.8 µM
- amount of conjugate at 3 h (value at time 0 is 100) [2]: 100
- degradation/release of the statin from the conjugate [2]: no degradation/release
- stability when exposed to serum [2]: stable and not subject to degradation
- IC50 (human cancer cell lines): 2 to 12 µM
- IC50 (H1650 (LC)): 11.8 µM
- IC50 (H446 (LC)): 3.4 µM
- IC50 (PC3 (PC)): 6 µM
- IC50 (A549 (LC)): 5.4 µM
- IC50 (H1975 (LC)): 6.4 µM
SMILES: CCC(C)(C)C(=O)O[C@H]1C[C@@H](C)C=C2C=C[C@H](C)[C@H](CC[C@@H](O)C[C@@H](O)CC(=O)OCCNC(=O)CCCCCN3/C(=C/C=C4\CCCC(/C=C/C5=[N+](CCCCS(=O)(=O)O)c6ccccc6C5(C)C)=C4Cl)C(C)(C)c4ccccc43)[C@H]21 [DZ2b]
- IC50 (EZ-resistant C4-2B (PC)): 3.8 µM

- amount of conjugate at 3 h (value at time 0 is 100) [2]: 10
- degradation/release of the statin from the conjugate [2]: 90%
- stability when exposed to serum [2]: less stable and more easily degrades
SMILES: CCC(C)(C)C(=O)O[C@H]1C[C@@H](C)C=C2C=C[C@H](C)[C@H](CC[C@@H]3C[C@@H](OC(=O)CCCCCN4/C(=C/C=C5\CCCC(/C=C/C6=[N+](CCCCS(=O)(=O)[O-])c7ccccc7C6(C)C)=C5Cl)C(C)(C)c5ccccc54)CC(=O)O3)[C@H]21 [DZ2c]

SMILES: CC(=O)O[C@@]12CO[C@@H]1C[C@H](O)[C@@]1(C)C(=O)[C@H](O)C3=C(C)[C@@H](OC(=O)[C@H](O)[C@@H](NC(=O)OC(C)(C)C)c4ccccc4)C[C@@](O)([C@@H](OC(=O)c4ccccc4)[C@H]21)C3(C)C [Docetaxel]
- tumor suppressive activity (tumor volume increase) [3]: no or very mild tumor suppressive activity
- tumor suppressive activity (tumor volume increase) ([3]; listed as DOC): no significant tumor suppressive activity

SMILES: COc1cc2ncnc(Nc3ccc(F)c(Cl)c3)c2cc1OCCCN1CCOCC1 [Gefitinib]
- RhoA/B staining of tumor cell membranes [4]: staining persists in the membranes
